# Patent publication US20260209223A1, “FGFR3 INHIBITOR COMPOUNDS” (TYRA BIOSCIENCES, INC., priority 2022, published 2026)
# Legend:
# Ba/F3 ETV5-FGFR4 = biological target: T1, Ba/F3 ETV5-FGFR4 (Homo sapiens, UniProt P22455); assay: Ba/F3 cell viability assay (CellTiter-Glo 2.0); format: cell-based; settings: Ba/F3 cell data, ETV5-FGFR4 fusion, 48 hours
# T1 construct: host or cells: Ba/F3; the other entry of the earlier key: ETV5 (P41161, ETS translocation variant 5)
# Excerpt: Experimental Purpose: Recombinant kinase fusions are transduced into parental Ba/F3, which becomes dependent upon this constitutive kinase activity for IL3-independent survival. Inhibition of kinase activity leads to cell death, which is monitored using CellTiter-Glo® 2.0 (Promega) which measures intracellular ATP concentration that in turn serves as a marker for viability. BCR-FGFR1 Ba/F3, BCR-FGFR2 and FGFR3-BAIAP2L1 Ba/F3 were obtained from Advanced Cellular Dynamics (Seattle, WA). ETV6-FGFR4 was obtained from Kyinno (Waltham, MA).
# Cell Viability Assay Procedure: Cell Titer-Glo® 2.0 Luminescent cell viability assay reagent was purchased from Promega (Madison, WI). Ba/F3 cell lines were cultured in RPMI1640 media supplemented with 10% fetal bovine serum. Cultures were maintained at 37° C. in a humidified atmosphere of 5% CO2 and 95% air.
# Cells were plated in 96-well clear bottom/white plates (Corning #3903) at 10,000 cells/well in 100 μl of media, incubated overnight. The next day, test compound DMSO stock solutions were made at 10 mM and 2 μM final concentration. Compounds were then added to cells in a 9-dose, 10-fold dilution series starting at 30 μM with an HP 300e Digital Dispenser (each dose was applied in triplicate). DMSO was backfilled to each well up to 301 nL total volume of test compound+DMSO, and a total of 301 nL DMSO was added to a control/no test compound well in triplicate. The cells in cell culture plates were incubated with the compounds at 37° C. and 5% CO2 for 48 hours. Then 50 μl of Cell Titer Glo 2.0 reagent was added to each well of the cell culture plates. The contents were covered from light and mixed on an orbital shaker at room temperature for 10 min. Luminescence was recorded by a Synergy H1 Microplate Reader (Biotek, Winooski, VT). Cells were assessed as a percentage of DMSO only treated control cells. Curves were plotted and IC50 values were calculated using the GraphPad Prism 8 program based on a sigmoidal dose-response equation (4 parameter).
# FGFR3 (V555M) = biological target: T2, FGFR3 (V555M) (Homo sapiens, UniProt P22607, V555M); assay: Kinase binding assay (Kd), kinase-tagged T7 phage, affinity beads, qPCR; settings: in vitro binding assay, 11-point 3-fold dilution series
# T2 construct: made in house; host or cells: E. coli (BL21-derived) infected with T7 phage
# T2 sequence (P22607 23-806 V555M): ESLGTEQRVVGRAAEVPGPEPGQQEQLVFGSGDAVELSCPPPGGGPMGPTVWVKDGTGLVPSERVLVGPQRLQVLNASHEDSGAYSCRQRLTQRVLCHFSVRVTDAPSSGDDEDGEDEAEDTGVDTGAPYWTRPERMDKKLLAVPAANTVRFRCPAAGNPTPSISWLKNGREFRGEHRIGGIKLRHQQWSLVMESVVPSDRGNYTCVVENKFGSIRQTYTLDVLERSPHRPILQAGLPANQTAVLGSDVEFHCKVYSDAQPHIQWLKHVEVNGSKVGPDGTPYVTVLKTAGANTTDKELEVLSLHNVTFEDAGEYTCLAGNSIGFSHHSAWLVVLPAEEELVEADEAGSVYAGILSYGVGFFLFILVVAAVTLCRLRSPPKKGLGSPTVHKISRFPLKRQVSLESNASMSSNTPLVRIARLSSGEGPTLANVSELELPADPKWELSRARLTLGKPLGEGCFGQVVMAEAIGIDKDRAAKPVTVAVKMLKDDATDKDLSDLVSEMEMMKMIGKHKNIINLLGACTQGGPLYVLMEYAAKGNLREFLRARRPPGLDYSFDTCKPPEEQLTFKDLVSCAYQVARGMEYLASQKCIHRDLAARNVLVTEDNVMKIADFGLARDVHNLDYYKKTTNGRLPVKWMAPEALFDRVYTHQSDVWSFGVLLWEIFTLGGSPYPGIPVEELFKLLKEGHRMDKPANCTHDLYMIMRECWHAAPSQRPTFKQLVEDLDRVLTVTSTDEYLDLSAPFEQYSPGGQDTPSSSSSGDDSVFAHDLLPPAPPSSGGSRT
# Method: (§1) Kinase-tagged T7 phage strains were prepared in an E. coli host derived from the BL21 strain. E. coli were grown to log-phase and infected with T7 phage and incubated with shaking at 32° C. until lysis. The lysates were centrifuged and filtered to remove cell debris. Streptavidin-coated magnetic beads were treated with biotinylated small molecule ligands for 30 minutes at room temperature to generate affinity resins for kinase assays. The liganded beads were blocked with excess biotin and washed with blocking buffer SeaBlock (Pierce), 1% BSA, 0.05% Tween 20, 1 mM DTT to remove unbound ligand and to reduce non-specific binding. Binding reactions were assembled by combining kinases, liganded affinity beads, and test compounds in 1× binding buffer (20% SeaBlock, 0.17×PBS, 0.05% Tween 20, 6 mM DTT).
# (§2) Test compounds were prepared as 111× stocks in 100% DMSO. Kds were determined using an 11-point 3-fold compound dilution series with three DMSO control points. All compounds for Kd measurements are distributed by acoustic transfer (non-contact dispensing) in 100% DMSO. The compounds were then diluted directly into the assays such that the final concentration of DMSO was 0.9%. All reactions performed in polypropylene 384-well plate. Each was a final volume of 0.02 ml. The assay plates were incubated at room temperature with shaking for 1 hour and the affinity beads were washed with wash buffer (1×PBS, 0.05% Tween 20). The beads were then re-suspended in elution buffer (1×PBS, 0.05% Tween 20, 0.5 μM non-biotinylated affinity ligand) and incubated at room temperature with shaking for 30 minutes. The kinase concentration in the eluates was measured by qPCR.
# (§3) Binding constants were calculated with a standard dose-response curve using the Hill equation: […]
# (§4) The Hill Slope was set to −1. Curves were fitted using a non-linear least square fit with the Levenberg-Marquardt algorithm.
# FGFR4 = biological target: T3, FGFR4 (Homo sapiens, UniProt P22455); assay: as above; settings: in vitro binding assay, 11-point 3-fold dilution series
# T3 construct: made in house; host or cells: E. coli (BL21-derived) infected with T7 phage
# T3 sequence (P22455 22-802): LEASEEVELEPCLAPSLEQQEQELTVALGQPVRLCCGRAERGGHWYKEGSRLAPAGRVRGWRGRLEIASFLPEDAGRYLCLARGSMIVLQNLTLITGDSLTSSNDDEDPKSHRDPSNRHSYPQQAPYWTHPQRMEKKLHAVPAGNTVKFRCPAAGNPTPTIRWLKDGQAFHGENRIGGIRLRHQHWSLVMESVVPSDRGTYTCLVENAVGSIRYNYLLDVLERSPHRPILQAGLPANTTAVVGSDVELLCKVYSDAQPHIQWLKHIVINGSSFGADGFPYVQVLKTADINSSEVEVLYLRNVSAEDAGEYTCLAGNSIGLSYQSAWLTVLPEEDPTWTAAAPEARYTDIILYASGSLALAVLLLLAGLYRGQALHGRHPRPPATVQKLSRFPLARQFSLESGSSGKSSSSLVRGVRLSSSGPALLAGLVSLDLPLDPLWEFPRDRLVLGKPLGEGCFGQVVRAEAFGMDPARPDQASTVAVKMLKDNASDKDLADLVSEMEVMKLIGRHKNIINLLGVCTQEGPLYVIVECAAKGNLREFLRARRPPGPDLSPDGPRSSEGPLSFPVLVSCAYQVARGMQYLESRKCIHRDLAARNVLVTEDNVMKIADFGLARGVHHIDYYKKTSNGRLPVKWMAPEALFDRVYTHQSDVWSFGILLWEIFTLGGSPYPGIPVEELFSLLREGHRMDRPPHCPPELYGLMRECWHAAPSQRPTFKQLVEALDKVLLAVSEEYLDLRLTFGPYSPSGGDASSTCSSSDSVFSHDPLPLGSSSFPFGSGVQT
# Method: as §1, §2, §3, §4
# FGFR2 = biological target: T4, FGFR2 (Homo sapiens, UniProt P21802); assay: as above; settings: in vitro binding assay, 11-point 3-fold dilution series
# T4 construct: made in house; host or cells: E. coli (BL21-derived) infected with T7 phage
# T4 sequence (P21802 22-821): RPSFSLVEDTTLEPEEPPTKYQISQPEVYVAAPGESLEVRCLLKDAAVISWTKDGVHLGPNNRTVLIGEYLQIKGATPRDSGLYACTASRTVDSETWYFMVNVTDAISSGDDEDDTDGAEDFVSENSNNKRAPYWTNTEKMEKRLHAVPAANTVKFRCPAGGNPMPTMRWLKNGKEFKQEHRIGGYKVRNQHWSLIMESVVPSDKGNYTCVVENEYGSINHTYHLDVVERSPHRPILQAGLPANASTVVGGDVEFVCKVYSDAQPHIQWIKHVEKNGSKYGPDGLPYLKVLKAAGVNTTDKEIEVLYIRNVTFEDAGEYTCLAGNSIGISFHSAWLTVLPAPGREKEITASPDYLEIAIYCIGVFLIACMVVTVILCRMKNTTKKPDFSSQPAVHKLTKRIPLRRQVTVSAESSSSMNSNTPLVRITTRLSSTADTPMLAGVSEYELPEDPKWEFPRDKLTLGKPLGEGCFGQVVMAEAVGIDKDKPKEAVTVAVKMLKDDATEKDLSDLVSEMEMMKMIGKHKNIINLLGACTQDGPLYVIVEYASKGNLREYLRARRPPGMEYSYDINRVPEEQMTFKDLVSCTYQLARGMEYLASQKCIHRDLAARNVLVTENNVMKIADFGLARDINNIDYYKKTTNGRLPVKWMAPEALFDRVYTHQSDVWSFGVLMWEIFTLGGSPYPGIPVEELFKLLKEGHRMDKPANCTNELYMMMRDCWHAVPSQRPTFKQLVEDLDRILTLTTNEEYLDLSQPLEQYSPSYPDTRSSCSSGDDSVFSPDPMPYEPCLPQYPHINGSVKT
# Method: as §1, §2, §3, §4
# FGFR3 = biological target: T5, FGFR3 (Homo sapiens, UniProt P22607); assay: as above; settings: in vitro binding assay, 11-point 3-fold dilution series
# T5 construct: made in house; host or cells: E. coli (BL21-derived) infected with T7 phage
# T5 sequence (P22607 23-806): as the sequence (P22607 23-806 V555M) above, with M533V counted along it
# Method: as §1, §2, §3, §4
# FGFR1 = biological target: T6, FGFR1 (Homo sapiens, UniProt P11362); assay: as above; settings: in vitro binding assay, 11-point 3-fold dilution series
# T6 construct: made in house; host or cells: E. coli (BL21-derived) infected with T7 phage
# T6 sequence (P11362 22-822): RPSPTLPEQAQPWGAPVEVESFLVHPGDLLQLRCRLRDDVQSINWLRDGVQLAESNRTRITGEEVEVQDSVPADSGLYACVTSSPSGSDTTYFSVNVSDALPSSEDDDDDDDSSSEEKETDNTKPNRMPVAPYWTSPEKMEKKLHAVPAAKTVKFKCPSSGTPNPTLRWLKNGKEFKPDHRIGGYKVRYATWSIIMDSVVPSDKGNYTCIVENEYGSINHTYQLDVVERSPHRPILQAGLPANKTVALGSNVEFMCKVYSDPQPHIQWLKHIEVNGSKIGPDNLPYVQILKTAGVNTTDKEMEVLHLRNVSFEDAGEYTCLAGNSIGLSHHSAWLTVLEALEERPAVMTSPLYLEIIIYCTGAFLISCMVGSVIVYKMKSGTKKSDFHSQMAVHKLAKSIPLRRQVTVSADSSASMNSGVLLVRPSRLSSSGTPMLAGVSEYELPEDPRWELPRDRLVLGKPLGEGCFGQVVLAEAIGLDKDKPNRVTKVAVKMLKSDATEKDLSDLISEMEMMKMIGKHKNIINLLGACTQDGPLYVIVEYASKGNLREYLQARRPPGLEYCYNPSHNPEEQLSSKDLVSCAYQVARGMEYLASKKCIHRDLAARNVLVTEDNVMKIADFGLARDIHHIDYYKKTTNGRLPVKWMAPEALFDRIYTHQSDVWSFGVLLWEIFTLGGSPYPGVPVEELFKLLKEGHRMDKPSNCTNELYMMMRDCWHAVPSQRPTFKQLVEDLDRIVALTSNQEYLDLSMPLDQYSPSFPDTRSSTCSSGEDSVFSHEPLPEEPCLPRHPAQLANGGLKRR
# Method: as §1, §2, §3, §4
# KG-1 = assay: Cancer cell line cell viability assay (CellTiter-Glo 2.0); format: cell-based; settings: Homo sapiens; KG-1 (FGFR1-fusion) cell viability, 72 hours
# Excerpt: (§5) Experimental Purpose: To detect the change of intracellular ATP by Cell Titer-Glo® and to evaluate the inhibitory effect of the compounds on cancer cell lines by determining the in vitro IC50 value of the compounds.
# (§6) Cell Titer-Glo® 2.0 Luminescent cell viability assay reagent was purchased from Promega (Madison, WI). RT112/84 and KG-1 cell lines were purchased from American Type Culture Collection (Manassas, VA). UM-UC-14 cell line was purchased from Sigma (St. Louis, MO). RT112/84, UM-UC-14, and KG-1 cells were cultured in RPMI1640 media supplemented with 10% fetal bovine serum. Cultures were maintained at 37° C. in a humidified atmosphere of 5% CO2 and 95% air.
# (§7) Cell Viability Assay Procedure: Cells were plated in 96-well clear bottom/white plates (Corning #3903) at 10,000 cells/well in 100 μl of media, incubated overnight. The next day, test compound DMSO stock solutions were made at 10 mM and 2 μM final concentration.
# (§8) Compounds were then added to cells in a 9-dose, […] dilution series starting at 30 μM with an HP 300e Digital Dispenser (each dose was applied in triplicate). DMSO was backfilled to each well up to 301 nL total volume of test compound+DMSO, and a total of 301 nL DMSO was added to a control/no test compound well in triplicate. The cells in cell culture plates were incubated with the compounds at 37° C. and 5% CO2 for 72 hours. Then 50 μl of Cell Titer Glo 2.0 reagent was added to each well of the cell culture plates. The contents were covered from light and mixed on an orbital shaker at room temperature for 10 min.
# (§9) Luminescence was recorded by a Synergy H1 Microplate Reader (Biotek, Winooski, VT). Cells were assessed as a percentage of DMSO only treated control cells. Curves were plotted and IC50 values were calculated using the GraphPad Prism 8 program based on a sigmoidal dose-response equation (4 parameter).
# RT112/84 = assay: as above; format: cell-based; settings: Homo sapiens; RT112/84 (FGFR3-fusion) cell viability, 72 hours
# Excerpt: as §5, §6, §7, §8, §9
# Ba/F3 BCR-FGFR2 = biological target: T7, Ba/F3 BCR-FGFR2 (Homo sapiens, UniProt P21802); assay: Ba/F3 cell viability assay (CellTiter-Glo 2.0); format: cell-based; settings: Ba/F3 cell data, BCR-FGFR2 fusion, 48 hours
# T7 construct: BCR (fusion partner); host or cells: Ba/F3; the other entry of the earlier key: BCR (P11274, Breakpoint cluster region protein)
# T7 sequence (P21802 481-770 limits assumed): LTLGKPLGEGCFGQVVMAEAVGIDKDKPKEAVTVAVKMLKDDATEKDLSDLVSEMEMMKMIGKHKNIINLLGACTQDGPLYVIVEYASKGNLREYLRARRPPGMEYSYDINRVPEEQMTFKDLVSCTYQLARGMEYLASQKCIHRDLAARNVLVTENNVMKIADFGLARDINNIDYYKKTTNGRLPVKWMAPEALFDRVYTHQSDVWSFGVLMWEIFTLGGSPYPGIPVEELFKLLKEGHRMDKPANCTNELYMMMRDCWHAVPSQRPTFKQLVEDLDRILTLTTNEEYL
# Ba/F3 FGFR3-BAIAP2L1 = biological target: T8, Ba/F3 FGFR3-BAIAP2L1 (Homo sapiens, UniProt P22607); assay: Ba/F3 cell viability assay (CellTiter-Glo 2.0); format: cell-based; settings: Ba/F3 cell data, FGFR3-BAIAP2L1 fusion, 48 hours
# T8 construct: BAIAP2L1 (fusion partner, Q9UHR4 if human); host or cells: Ba/F3; the other entry of the earlier key: BAIAP2L1 (Q9UHR4, BAR/IMD domain-containing adapter protein 2-like 1)
# T8 sequence (P22607 397-758 limits assumed): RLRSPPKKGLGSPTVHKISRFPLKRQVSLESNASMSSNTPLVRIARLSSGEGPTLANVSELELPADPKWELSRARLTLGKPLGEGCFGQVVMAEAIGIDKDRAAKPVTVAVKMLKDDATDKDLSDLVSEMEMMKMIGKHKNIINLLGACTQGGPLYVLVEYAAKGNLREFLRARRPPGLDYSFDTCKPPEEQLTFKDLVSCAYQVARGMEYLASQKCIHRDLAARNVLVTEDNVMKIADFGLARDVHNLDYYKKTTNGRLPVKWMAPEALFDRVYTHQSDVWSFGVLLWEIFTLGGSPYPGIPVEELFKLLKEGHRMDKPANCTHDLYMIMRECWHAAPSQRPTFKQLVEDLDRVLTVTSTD
# Ba/F3 BCR-FGFR1 = biological target: T9, Ba/F3 BCR-FGFR1 (Homo sapiens, UniProt P11362); assay: Ba/F3 cell viability assay (CellTiter-Glo 2.0); format: cell-based; settings: Ba/F3 cell data, BCR-FGFR1 fusion, 48 hours
# T9 construct: BCR (fusion partner); host or cells: Ba/F3; the other entry of the earlier key: BCR (P11274, Breakpoint cluster region protein)
# T9 sequence (P11362 478-767 limits assumed): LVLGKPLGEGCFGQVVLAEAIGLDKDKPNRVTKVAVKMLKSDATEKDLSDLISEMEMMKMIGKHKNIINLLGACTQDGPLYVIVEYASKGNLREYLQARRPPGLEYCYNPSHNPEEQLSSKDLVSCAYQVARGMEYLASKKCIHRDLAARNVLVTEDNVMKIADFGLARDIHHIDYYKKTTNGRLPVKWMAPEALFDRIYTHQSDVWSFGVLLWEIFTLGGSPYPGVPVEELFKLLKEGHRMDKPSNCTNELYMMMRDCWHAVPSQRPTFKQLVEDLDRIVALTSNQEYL
# KatoIIII = assay: Cancer cell line cell viability assay (CellTiter-Glo 2.0); format: cell-based; settings: 72 hours
# T1 sequence (P22455 467-755 limits assumed): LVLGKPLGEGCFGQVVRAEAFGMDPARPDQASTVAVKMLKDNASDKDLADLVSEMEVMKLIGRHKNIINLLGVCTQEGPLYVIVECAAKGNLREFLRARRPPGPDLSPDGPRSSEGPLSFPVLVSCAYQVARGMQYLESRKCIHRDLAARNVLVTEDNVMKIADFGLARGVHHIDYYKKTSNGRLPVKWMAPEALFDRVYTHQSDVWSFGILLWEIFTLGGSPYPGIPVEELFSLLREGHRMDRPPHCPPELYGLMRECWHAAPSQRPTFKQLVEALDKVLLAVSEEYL
Compound,Kd (FGFR3 (V555M)),Kd (FGFR4),Kd (FGFR2),Kd (FGFR3),Kd (FGFR1),IC50 (KG-1),IC50 (RT112/84),IC50 (KatoIIII),Kd (Ba/F3 ETV5-FGFR4),Kd (Ba/F3 BCR-FGFR2),Kd (Ba/F3 FGFR3-BAIAP2L1),Kd (Ba/F3 BCR-FGFR1)
"C=CC(=O)N1CCC(n2ncc(-c3cc(O[C@@H](CO)c4ccc(F)cn4)c4c(C#N)cnn4c3)c2C)CC1 [Example 2, 4-[(1R)-1-(5-fluoro-2-pyridyl)-2-hydroxy-ethoxy]-6-[5-methyl-1-(1-prop-2-enoyl-4-piperidyl)pyrazol-4-yl]pyrazolo[1,5-a]pyridine-3-carbonitrile]",250 to 1000 nM,≥ 1000 nM,250 to 1000 nM,250 to 1000 nM,250 to 1000 nM,≥ 1000 nM,≥ 1000 nM,250 to 1000 nM,≥ 1000 nM,≥ 1000 nM,250 to 1000 nM,≥ 1000 nM
"C=CC(=O)N1CCC2(CC1)CC(n1ncc(-c3cc(O[C@H](CO)c4ccccn4)c4c(C#N)cnn4c3)c1C)C2 [Example 8, (S)-6-(1-(7-acryloyl-7-azaspiro[3.5]nonan-2-yl)-5-methyl-1H-pyrazol-4-yl)-4-(2-hydroxy-1-(pyridin-2-yl)ethoxy)pyrazolo[1,5-a]pyridine-3-carbonitrile]",0.1 to 100 nM,0.1 to 100 nM,0.1 to 100 nM,0.1 to 100 nM,0.1 to 100 nM,100 to 250 nM,100 to 250 nM,100 to 250 nM,250 to 1000 nM,100 to 250 nM,0.1 to 100 nM,100 to 250 nM
"C=CC(=O)N1CCC(n2ncc(-c3cc(O[C@H](CO)c4ccc(F)cn4)c4c(C#N)cnn4c3)c2C)CC1 [Example 1, 4-[(1S)-1-(5-fluoro-2-pyridyl)-2-hydroxy-ethoxy]-6-[5-methyl-1-(1-prop-2-enoyl-4-piperidyl)pyrazol-4-yl]pyrazolo[1,5-a]pyridine-3-carbonitrile]",0.1 to 100 nM,100 to 250 nM,0.1 to 100 nM,0.1 to 100 nM,100 to 250 nM,≥ 1000 nM,100 to 250 nM,100 to 250 nM,250 to 1000 nM,100 to 250 nM,0.1 to 100 nM,250 to 1000 nM

# The next lines start with results.
Kd (FGFR3 (V555M)),Kd (FGFR4),Kd (FGFR2),Kd (FGFR3),Kd (FGFR1),IC50 (KG-1),IC50 (RT112/84),IC50 (KatoIIII),Compound,Kd (Ba/F3 ETV5-FGFR4),Kd (Ba/F3 BCR-FGFR2),Kd (Ba/F3 FGFR3-BAIAP2L1),Kd (Ba/F3 BCR-FGFR1)
100 to 250 nM,100 to 250 nM,0.1 to 100 nM,0.1 to 100 nM,100 to 250 nM,250 to 1000 nM,250 to 1000 nM,250 to 1000 nM,"C=CC(=O)N1CCC2(CC1)CC(n1ncc(-c3cc(OC(CO)c4ccn(C)n4)c4c(C#N)cnn4c3)c1C)C2 (stereo not drawn) [Example 14, 6-(1-(7-acryloyl-7-azaspiro[3.5]nonan-2-yl)-5-methyl-1H-pyrazol-4-yl)-4-(2-hydroxy-1-(1-methyl-1H-pyrazol-3-yl)ethoxy)pyrazolo[1,5-a]pyridine-3-carbonitrile]",250 to 1000 nM,250 to 1000 nM,0.1 to 100 nM,250 to 1000 nM
0.1 to 100 nM,0.1 to 100 nM,0.1 to 100 nM,0.1 to 100 nM,0.1 to 100 nM,0.1 to 100 nM,100 to 250 nM,100 to 250 nM,"C=CC(=O)N1CCC2(CC1)CC(n1nnc(-c3cc(O[C@H](CO)c4ccc(F)cn4)c4c(C#N)cnn4c3)c1C)C2 [Example 13, (S)-6-(1-(7-acryloyl-7-azaspiro[3.5]nonan-2-yl)-5-methyl-1H-1,2,3-triazol-4-yl)-4-(1-(5-fluoropyridin-2-yl)-2-hydroxyethoxy)pyrazolo[1,5-a]pyridine-3-carbonitrile]",250 to 1000 nM,100 to 250 nM,0.1 to 100 nM,250 to 1000 nM
0.1 to 100 nM,0.1 to 100 nM,0.1 to 100 nM,0.1 to 100 nM,0.1 to 100 nM,≥ 1000 nM,≥ 1000 nM,≥ 1000 nM,"C=CC(=O)N1CC(OC)(C(=O)N2CCC(n3nnc(-c4cc(O[C@H](CO)c5ccccn5)c5c(C#N)cnn5c4)c3C)CC2)C1 [Example 22, (S)-6-(1-(1-(1-acryloyl-3-methoxyazetidine-3-carbonyl)piperidin-4-yl)-5-methyl-1H-1,2,3-triazol-4-yl)-4-(2-hydroxy-1-(pyridin-2-yl)ethoxy)pyrazolo[1,5-a]pyridine-3-carbonitrile]",≥ 1000 nM,≥ 1000 nM,0.1 to 100 nM,≥ 1000 nM
